Read-outs that look alike come from different tables or passages of the source.

Data on twelve molecules can be found in US6586440B2, “Pharmaceutical compositions of 5-alkynyl uracil compounds” (SmithKline Beecham Corporation, priority 1990, dated 2003).

Data set [1] deals with T1, Uracil reductase (dihydropyrimidine dehydrogenase, EC 1.3.1.2) (Bos taurus, UniProt Q28007).
T1 construct: (dihydropyrimidine dehydrogenase, EC 1.3.1.2) purified from bovine live; from tissue; host or cells: bovine liver ('bovine live' [sic])
T1 sequence (Q28007 1-1025): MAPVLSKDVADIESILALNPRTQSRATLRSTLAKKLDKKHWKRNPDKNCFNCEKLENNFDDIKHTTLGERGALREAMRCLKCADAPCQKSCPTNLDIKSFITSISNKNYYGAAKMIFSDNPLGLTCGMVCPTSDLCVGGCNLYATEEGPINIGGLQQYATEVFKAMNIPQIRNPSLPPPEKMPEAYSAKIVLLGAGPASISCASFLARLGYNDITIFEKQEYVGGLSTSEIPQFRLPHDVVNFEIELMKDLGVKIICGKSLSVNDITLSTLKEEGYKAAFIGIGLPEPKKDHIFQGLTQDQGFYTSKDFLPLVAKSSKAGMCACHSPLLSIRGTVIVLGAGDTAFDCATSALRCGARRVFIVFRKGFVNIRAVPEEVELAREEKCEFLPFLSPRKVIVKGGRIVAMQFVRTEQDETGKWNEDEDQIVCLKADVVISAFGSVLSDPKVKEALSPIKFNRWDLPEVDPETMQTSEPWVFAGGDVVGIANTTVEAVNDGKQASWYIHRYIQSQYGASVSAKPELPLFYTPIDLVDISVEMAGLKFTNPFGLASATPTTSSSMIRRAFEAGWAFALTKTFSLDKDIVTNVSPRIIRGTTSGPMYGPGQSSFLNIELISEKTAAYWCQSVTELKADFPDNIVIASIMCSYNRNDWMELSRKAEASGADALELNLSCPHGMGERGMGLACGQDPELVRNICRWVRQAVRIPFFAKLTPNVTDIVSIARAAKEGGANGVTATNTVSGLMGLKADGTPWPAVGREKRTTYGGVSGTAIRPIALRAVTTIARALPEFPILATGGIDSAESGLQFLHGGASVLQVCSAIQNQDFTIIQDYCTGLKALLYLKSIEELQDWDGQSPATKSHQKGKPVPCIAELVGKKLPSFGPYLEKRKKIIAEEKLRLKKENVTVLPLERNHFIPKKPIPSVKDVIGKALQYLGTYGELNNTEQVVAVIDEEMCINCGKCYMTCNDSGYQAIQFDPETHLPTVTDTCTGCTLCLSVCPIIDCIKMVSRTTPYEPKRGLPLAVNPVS
The data set is described as follows: Determination of uracil reductase inactivation. The class given is biochemical, bovine. As to conditions: for inhibition at 100 µM: 0.5 h; for relative first-order rate constants for inactivation of enzyme (parenthetical values): fractional activity as a function of time of incubation of 50 μM inactivator with enzyme. The protocol: Determination of Uracil Reductase Inactivation
Uracil reductase (1 μM) (dihydropyrimidine dehydrogenase, EC 1.3.1.2) purified from bovine live was incubated with 100 μM inactivator and 5 mM dithiothreitol (enzyme reductant) at 37° for 30 minutes in 0.05 M Tris-HCL at pH 8.0. The enzyme and inactivator were diluated 100-fold into the assay buffer, which contained 200 μM NADPH, 200 μM thymine and 1 μM dithiothreitol in Tris-HCl at pH 8.0. The velocity of the enzyme was determined spectrophotometrically. These velocities have been corrected for NADPH oxidase activity, which was less than 10% of the rate of thymine-dependent oxidation of NADPH. The % inactivation of the enzyme was equal to 100% minus the percent of enzymatic activity remaining. Enzyme incubated without inhibitor was stable under these conditions. Parenthetical values are the relative first-order rate constants for inactivation of enzyme determined from similar experiments where the fractional activity was measured as a function of the time of incubation of 50 μM inactivator with enzyme.

Another data set has as its system Male mice. As to the kind of experiment: Protection from zidovudine toxicity in mice. The class given is in vivo. Here is the method: Male mice were doses p.o. with 1000 mg/kg/day of zidovudine for 30 days either alone, or 1.5 hours after dosing with 2 mg/kg/day of 5-ethynyluracil (5-EU). Other groups of mice (a) were dosed with 2 mg/kg/day of 5-ethynyluracil alone; and (b) served as controls, receiving neither zidovudine nor 5-ethynyluracil. Levels of haematocrit, haemoglobin and red blood cells were determined.

Where [2] appears, read: 1 μM enzyme incubated with 100 μM inactivator and 5 mM dithiothreitol, 37°, 30 minutes, pH 8.0, then diluted 100-fold into assay buffer, read-out: % Inactivation.
The mark [3] stands for this setting: male mice, p.o., 30 days, zidovudine 1000 mg/kg/day, 5-EU 2 mg/kg/day, given 1.5 hours before zidovudine in the combination.

For `O=c1[nH]cc(Br)c(=O)[nH]1` [5 -bromouracil, 5-bromouracil], the inhibition at 100 µM in data set [1] (pH 8, read-out: % Inactivation) worked out at 75%.

On to `C=C(Cl)c1c[nH]c(=O)[nH]c1=O` [5-(1-chlorovinyl)uracil], for which the inhibition at 100 µM in data set [1] (setting [2]) was determined as 100%. Moreover, the “relative first-order rate constants for inactivation of enzyme (parenthetical values)” value (“relative first-order rate constants” below) in data set [1] was “(5)”.

On to `O=c1[nH]cc(C(Cl)=CBr)c(=O)[nH]1` [5-(2-bromo-1-chlorovinyl)uracil], for which the inhibition at 100 µM in data set [1] (setting [2]) is 68%.

Consider `O=c1[nH]cc(C#CBr)c(=O)[nH]1` [5-bromoethynyluracil], for which the inhibition at 100 µM in data set [1] (setting [2]) amounted to 100%. In addition, the “relative first-order rate constants” value in data set [1] is “(8)”.

In the case of `O=c1[nH]cc(C=CBr)c(=O)[nH]1` [5-bromovinyluracil], the inhibition at 100 µM in data set [1] (setting [2]) worked out at 93%.

With `N#Cc1c[nH]c(=O)[nH]c1=O` [5-cyanouracil], in data set [1] (setting [2]), the inhibition at 100 µM came out at 100%. For the same molecule, in data set [1], the “relative first-order rate constants” value is listed as “(14)”.

For `C#Cc1c[nH]c(=O)[nH]c1=O` [5-ethynyluracil, 5-Ethynyluracil], in the data set on Male mice (setting [3]), the HEMATOCRIT amounted to 45.9%, the HEMOGLOBIN was 15.1 g/dL and the RED BLOOD CELLS turned out to be 9.1 million/µL. For the same molecule, the “prevention of red-blood cell anaemia induced by treatment with zidovudine” value in the data set with Male mice (mice) is “at least partially prevented”. Further, the inhibition at 100 µM in data set [1] (setting [2]) came to 100%. Besides, the “relative first-order rate constants” value in data set [1] is “(100)”.

Consider `CCCCC#Cc1c[nH]c(=O)[nH]c1=O` [5-hex-1-ynyluracil], for which, in data set [1] (setting [2]), the inhibition at 100 µM turned out to be 90%.

`CC#Cc1c[nH]c(=O)[nH]c1=O` [5-propynyluracil, 5-Propynyluracil]: the melting point was 275 to 280 °C (dec.). Besides, in data set [1] (setting [2]), the inhibition at 100 µM came to 100%. Besides, the “relative first-order rate constants” value in data set [1] was “(8)”.

Turning to `O=c1[nH]cc(C(F)(F)F)c(=O)[nH]1` [5-trifluorouracil], the “% Inactivation” value in data set [1] (1 μM enzyme incubated with 100 μM inactivator and 5 mM dithiothreitol, 37°, 30 minutes, pH 8.0, then diluted 100-fold into assay buffer) was determined as 75%.

With `C=Cc1c[nH]c(=O)[nH]c1=O` [5-vinyluracil], in data set [1] (setting [2]), the inhibition at 100 µM was 86%.

As to `O=c1[nH]cc(I)c(=O)[nH]1` [Example 5-iodouracil, 5-iodouracil], the inhibition at 100 µM in data set [1] (setting [2]) was determined as 100%. The “relative first-order rate constants” value in data set [1] is on record as “(4)”.

The term melting point denotes the temperature of the solid-liquid transition.
